Active and inactive are the calls of the source.
Experiments:
HeLa = assay: Cytotoxicity counterscreen assay for transcriptional activators of heat shock protein 70 (Hsp70). [Related pubchem assays: 1203, 1252 ]; assay type: functional; settings: Homo sapiens;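 also: cells exposed to compound for 16 hours before readout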
[1] = NIH-3T3 fibroblast cytotoxicity, dose response, cytotoxicity control, cell-based, fluorescence, Alamar Blue, secondary assay (AID 2327); assay type: functional;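 also: NIH-3T3 mouse fibroblasts cultured with fluconazole at 8 µg/mL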
Beta-galactosidase = Beta-galactosidase (Escherichia coli, UniProt Q8VNN2); assay type: functional
Chain of Beta-galactosidase (Q8VNN2 whole entry): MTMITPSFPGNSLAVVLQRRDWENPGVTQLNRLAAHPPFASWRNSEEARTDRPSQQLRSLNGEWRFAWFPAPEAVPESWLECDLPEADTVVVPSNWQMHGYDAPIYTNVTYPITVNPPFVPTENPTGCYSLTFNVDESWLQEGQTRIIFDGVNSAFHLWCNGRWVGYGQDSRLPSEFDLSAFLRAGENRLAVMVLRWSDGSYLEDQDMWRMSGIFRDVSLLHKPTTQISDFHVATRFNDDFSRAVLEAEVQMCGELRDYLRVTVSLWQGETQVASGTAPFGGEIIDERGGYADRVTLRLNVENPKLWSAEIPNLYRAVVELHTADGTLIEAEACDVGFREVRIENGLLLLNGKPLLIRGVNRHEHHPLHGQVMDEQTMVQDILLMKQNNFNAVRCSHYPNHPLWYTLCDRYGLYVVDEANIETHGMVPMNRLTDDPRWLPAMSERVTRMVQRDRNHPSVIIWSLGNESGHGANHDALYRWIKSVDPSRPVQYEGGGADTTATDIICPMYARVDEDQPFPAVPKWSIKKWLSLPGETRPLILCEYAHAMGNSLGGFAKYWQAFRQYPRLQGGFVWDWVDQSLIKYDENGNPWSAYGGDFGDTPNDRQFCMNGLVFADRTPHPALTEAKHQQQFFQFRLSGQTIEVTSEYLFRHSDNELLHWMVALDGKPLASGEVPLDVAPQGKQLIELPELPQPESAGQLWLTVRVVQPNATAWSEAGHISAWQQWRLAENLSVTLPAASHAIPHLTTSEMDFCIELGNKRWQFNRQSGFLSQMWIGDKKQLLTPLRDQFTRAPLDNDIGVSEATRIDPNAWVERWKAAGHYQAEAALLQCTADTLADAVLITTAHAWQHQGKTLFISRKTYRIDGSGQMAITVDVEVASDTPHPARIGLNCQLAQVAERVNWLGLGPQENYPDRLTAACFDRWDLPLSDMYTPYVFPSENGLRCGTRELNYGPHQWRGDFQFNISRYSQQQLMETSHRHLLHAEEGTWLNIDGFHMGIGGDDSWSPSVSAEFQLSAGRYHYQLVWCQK

[2] = fluconazole-exposed Candida albicans growth modulators – fluorescence, retest, confirmation (AID 2467); assay type: functional, cell-based
[3] = target: T1, Delta-type opioid receptor (Homo sapiens, UniProt P41143); assay: HTS Image-Based Screen for Antagonists of the DOR Receptor. [Related pubchem assays (depositor defined):AID1777, AID1785, AID1786, AID2133]; assay type: functional
T1 sequence (P41143 whole entry): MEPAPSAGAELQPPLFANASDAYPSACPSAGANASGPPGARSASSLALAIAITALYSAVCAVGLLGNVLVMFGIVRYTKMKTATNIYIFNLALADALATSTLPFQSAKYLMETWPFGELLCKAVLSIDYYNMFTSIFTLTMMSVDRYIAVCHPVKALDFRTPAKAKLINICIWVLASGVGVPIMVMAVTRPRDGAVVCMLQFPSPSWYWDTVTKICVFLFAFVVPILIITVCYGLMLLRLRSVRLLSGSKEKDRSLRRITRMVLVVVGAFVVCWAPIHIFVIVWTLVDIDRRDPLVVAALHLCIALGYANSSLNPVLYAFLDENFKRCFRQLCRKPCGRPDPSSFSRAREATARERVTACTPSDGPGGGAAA

Protein RecA = target: T2, Protein RecA (Mycobacterium tuberculosis, UniProt P9WHJ3); assay: Fluorescence Cell-Free Homogeneous Dose Retest to Identify Inhibitors of RecA-Intein Splicing Activity. [Related pubchem assays (depositor defined):AID2097, AID2223, AID489010, AID492950]; assay type: functional
T2 sequence (P9WHJ3 whole entry): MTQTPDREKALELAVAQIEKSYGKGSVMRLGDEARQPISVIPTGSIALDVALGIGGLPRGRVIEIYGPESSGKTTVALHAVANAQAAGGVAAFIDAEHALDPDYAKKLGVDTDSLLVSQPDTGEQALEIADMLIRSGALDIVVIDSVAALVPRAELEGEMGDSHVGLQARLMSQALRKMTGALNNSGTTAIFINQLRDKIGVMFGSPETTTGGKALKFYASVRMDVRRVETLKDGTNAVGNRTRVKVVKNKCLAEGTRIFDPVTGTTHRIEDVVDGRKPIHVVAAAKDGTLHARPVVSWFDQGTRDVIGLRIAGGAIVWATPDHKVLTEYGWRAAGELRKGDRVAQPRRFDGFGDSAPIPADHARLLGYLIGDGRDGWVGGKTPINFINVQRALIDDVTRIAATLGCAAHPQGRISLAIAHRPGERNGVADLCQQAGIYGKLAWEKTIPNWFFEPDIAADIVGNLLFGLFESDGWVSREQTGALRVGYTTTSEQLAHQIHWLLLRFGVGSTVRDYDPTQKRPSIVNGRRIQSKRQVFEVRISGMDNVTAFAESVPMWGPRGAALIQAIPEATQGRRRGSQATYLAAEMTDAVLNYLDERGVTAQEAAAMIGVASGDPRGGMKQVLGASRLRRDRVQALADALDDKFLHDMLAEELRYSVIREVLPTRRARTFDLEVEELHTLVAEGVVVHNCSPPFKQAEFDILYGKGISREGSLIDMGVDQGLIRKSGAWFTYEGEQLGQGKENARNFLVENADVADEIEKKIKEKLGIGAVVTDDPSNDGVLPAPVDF

[4] = target: T3, Kappa-type opioid receptor (Homo sapiens, UniProt P41145); assay type: functional
T3 sequence (P41145 whole entry): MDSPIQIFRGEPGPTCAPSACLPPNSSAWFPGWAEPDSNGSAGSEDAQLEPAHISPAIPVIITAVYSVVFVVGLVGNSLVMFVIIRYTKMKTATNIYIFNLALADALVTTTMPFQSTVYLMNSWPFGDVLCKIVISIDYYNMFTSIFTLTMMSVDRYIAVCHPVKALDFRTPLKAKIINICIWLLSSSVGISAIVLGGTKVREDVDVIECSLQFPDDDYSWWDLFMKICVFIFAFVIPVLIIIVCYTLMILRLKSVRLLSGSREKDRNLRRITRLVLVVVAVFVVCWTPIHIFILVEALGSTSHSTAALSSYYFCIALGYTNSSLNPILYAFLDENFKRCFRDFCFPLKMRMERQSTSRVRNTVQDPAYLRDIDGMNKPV

[5] = target: T4, Replicative DNA helicase DnaB (Mycobacterium tuberculosis, UniProt P9WMR3); assay: DnaB intein splicing inhibitors, dose response, biochemical, cell-free fluorescence (AID 449749); assay type: functional
T4 sequence (P9WMR3 whole entry): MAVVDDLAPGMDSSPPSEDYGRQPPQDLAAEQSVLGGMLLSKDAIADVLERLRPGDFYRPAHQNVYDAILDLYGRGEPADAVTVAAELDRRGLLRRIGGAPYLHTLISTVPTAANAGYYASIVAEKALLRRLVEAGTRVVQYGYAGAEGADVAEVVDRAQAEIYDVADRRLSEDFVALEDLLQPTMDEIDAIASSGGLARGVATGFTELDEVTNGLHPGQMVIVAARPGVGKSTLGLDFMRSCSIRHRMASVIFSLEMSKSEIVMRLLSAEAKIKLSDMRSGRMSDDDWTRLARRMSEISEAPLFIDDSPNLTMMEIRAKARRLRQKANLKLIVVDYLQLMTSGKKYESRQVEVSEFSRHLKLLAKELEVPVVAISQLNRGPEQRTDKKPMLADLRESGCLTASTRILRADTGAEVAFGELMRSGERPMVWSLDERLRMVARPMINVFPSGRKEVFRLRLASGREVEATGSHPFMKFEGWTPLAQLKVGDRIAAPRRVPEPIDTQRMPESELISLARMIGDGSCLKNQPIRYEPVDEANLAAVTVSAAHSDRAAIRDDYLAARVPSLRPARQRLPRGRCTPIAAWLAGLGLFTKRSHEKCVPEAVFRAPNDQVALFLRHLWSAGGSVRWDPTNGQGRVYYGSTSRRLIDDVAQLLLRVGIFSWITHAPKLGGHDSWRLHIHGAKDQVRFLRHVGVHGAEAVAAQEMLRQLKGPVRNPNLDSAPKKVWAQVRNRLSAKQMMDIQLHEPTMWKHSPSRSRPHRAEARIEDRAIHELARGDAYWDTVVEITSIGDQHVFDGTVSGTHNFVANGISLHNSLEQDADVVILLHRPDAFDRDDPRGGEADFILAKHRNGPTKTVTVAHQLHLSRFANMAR

CHO = CHO cell viability loss, potency – luminescence, cytotoxicity control for TLR9-MyD88 binding inhibitor project, dose response (AID 588339); assay type: functional, cell-based, hamster; settings: Cricetulus griseus;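 also: CHO cells stably coexpressing TLR9 and MyD88 fusions from primary screen; compound exposure lasted 48 hours before viability readout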
[6] = target: G-protein coupled receptor 55 (Homo sapiens, UniProt Q9Y2T6); assay: inhibition of LPI-stimulated GPR55 beta-arrestin translocation – imaging, U2OS, beta-arrestin-GFP, LPI agonist, primary screen (AID 2013); assay type: functional;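 also: antagonist potency measured as reduced agonist-driven arrestin aggregation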
Chain of G-protein coupled receptor 55 (Q9Y2T6 whole entry): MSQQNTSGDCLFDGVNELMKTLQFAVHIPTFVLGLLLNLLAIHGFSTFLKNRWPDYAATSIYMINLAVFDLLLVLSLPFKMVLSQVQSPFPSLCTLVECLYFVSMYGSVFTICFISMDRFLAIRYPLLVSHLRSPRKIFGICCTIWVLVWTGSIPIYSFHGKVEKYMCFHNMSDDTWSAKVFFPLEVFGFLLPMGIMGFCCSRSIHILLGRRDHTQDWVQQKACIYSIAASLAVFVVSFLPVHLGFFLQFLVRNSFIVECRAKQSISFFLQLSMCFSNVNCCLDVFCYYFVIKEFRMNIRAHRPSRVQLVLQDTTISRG

[7] = target: T1, Delta-type opioid receptor; assay: HTS Image-Based Screen for Agonists of the DOR Receptor. [Related pubchem assays (depositor defined):AID1777, AID1786, AID2133]; assay type: functional
[8] = target: T3, Kappa-type opioid receptor; assay type: functional; remark: listed apart in the source
Beta Lactamase = Beta Lactamase (Pseudomonas aeruginosa, UniProt Q932Y6); assay: BLA reporter interference, concentration series – BLA reporter cells, FRET fluorescence, artefact control for TLR9-MyD88 binding inhibitor project, dose response (AID 588341); assay type: cell-based;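 also: cell based assay in CHO-K1 cells stably expressing beta-lactamase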
Chain of Beta Lactamase (Q932Y6 whole entry): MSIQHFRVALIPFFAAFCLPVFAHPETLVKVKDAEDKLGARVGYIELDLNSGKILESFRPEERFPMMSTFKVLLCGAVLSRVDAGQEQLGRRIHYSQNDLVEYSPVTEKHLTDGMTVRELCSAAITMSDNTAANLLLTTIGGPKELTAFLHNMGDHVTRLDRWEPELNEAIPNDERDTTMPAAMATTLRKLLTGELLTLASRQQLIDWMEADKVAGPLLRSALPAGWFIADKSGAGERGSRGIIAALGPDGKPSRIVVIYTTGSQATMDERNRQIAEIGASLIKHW

Mu-type opioid receptor = Mu-type opioid receptor (Homo sapiens, UniProt P35372); assay: HTS Image-Based Screen for Agonists of the MOR Receptor. [Related pubchem assays (depositor defined):AID1777, AID1785, AID1786, AID2133]; assay type: functional;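 also: imaging of beta-arrestin GFP recruitment into spots after receptor activation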
Chain of Mu-type opioid receptor (P35372 whole entry): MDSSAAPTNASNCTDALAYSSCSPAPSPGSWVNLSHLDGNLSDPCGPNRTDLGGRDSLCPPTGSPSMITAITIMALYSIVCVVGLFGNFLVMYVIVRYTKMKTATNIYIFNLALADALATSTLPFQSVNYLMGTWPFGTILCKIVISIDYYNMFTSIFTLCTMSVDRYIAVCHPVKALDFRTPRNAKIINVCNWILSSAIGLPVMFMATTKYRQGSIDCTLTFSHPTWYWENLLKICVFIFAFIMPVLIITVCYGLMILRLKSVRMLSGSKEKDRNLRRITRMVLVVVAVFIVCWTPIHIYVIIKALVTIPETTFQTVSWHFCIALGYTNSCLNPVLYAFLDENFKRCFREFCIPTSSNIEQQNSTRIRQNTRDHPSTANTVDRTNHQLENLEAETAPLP

[9] = blockers of CRF-binding protein–CRF-R2 complex – cell-based, uHTS hits, 384-well, dose response (AID 651639); assay type: functional, Homo sapiens; settings: read-out: IC50_Mean
[10] = target: T5, Corticotropin-releasing factor receptor 2/Corticotropin-releasing factor-binding protein (Homo sapiens, UniProt P24387+Q13324); assay: Dose Response confirmation of uHTS hits for small molecule antagonists of the CRF-binding protein and CRF-R2 receptor complex.; assay type: functional; settings: read-out: IC50_Mean
T5 sequence (Q13324 whole entry): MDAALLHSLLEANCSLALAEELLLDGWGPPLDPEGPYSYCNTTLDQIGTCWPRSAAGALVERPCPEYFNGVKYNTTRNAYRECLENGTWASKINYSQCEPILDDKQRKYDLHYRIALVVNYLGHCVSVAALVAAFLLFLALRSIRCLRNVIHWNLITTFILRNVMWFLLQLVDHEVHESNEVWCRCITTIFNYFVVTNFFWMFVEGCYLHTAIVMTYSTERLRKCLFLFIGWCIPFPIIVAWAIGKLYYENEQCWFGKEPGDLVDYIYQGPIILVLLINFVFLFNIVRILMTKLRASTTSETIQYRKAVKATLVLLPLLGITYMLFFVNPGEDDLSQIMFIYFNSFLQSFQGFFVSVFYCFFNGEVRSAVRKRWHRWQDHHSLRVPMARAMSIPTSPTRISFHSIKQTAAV
T5 sequence (P24387 whole entry): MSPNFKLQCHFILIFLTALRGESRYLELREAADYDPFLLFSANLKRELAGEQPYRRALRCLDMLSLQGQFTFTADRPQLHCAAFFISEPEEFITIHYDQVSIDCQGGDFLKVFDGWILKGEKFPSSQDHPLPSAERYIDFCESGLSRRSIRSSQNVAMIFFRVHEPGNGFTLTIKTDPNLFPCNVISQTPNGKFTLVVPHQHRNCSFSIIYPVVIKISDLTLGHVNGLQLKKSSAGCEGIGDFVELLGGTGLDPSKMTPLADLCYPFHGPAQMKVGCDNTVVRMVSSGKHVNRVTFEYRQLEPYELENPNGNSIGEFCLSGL

CAAX prenyl protease 2 [11] = target: T6, CAAX prenyl protease 2 (Saccharomyces cerevisiae S288c, UniProt Q03530); assay: inhibition of Rce1p peptide cleavage – biochemical, plate reader, dry powder retest, dose response (AID 588851)
T6 sequence (Q03530 whole entry): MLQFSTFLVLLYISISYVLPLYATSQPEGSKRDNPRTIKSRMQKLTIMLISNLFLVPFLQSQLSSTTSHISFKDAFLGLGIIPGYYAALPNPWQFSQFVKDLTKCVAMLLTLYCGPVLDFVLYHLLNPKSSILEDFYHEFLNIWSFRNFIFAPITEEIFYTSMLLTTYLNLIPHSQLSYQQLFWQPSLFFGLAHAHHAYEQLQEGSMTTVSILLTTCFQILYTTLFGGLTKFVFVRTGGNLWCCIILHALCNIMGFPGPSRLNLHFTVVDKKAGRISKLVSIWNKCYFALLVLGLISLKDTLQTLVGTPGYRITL

[12] = target: T5, Corticotropin-releasing factor receptor 2/Corticotropin-releasing factor-binding protein; assay: activators of CRF receptor 2 with binding protein – uHTS hits, confirmation (AID 602473); assay type: functional; settings: read-out: EC50_Mean
CAAX prenyl protease 2 [13] = target: T6, CAAX prenyl protease 2; assay type: biochemical
Insulin-degrading enzyme [14] = target: T7, Insulin-degrading enzyme (Homo sapiens, UniProt P14735); assay: cellular IDE activation of Abeta substrate cleavage – fluorescence polarization, HEK cells, dose response (AID 588439); assay type: functional, cell-based
T7 sequence (P14735 whole entry): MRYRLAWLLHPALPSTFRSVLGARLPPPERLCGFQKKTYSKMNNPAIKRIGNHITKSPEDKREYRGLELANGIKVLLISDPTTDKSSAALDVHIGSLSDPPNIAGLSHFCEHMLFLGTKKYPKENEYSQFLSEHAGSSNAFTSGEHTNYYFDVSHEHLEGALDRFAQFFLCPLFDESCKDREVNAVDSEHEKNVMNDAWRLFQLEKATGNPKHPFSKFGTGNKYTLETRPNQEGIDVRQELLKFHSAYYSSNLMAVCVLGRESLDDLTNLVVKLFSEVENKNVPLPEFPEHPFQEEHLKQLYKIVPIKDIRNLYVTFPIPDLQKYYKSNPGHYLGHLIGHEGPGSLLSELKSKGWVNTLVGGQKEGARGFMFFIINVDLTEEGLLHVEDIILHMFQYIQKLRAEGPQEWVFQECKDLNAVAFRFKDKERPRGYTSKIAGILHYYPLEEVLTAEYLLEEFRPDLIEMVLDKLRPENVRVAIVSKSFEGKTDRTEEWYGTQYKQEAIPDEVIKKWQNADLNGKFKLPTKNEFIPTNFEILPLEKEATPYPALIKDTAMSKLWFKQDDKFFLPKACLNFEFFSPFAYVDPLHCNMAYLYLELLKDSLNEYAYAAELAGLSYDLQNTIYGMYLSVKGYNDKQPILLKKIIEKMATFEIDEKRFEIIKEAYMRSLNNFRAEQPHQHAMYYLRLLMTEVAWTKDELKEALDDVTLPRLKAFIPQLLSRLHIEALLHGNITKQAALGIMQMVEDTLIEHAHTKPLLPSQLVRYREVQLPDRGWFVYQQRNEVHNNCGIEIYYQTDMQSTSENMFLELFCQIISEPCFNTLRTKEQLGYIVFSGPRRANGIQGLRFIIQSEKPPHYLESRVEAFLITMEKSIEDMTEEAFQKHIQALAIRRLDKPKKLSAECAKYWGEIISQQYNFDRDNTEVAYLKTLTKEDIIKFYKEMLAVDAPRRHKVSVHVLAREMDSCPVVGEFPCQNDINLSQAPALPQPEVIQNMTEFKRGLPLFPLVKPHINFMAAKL

Insulin-degrading enzyme [15] = target: T7, Insulin-degrading enzyme; assay: recombinant IDE activation, cell-free – biochemical, fluorescence polarization, counter-screen for IDE activator project, dose response (AID 588681)
HEK293 [16] = assay: optical interference in Abeta FP readout, dose response, artefact control for IDE activator project, biochemical, fluorescence polarization (AID 588442); assay type: functional, cell-based; settings: Homo sapiens
HEK293 [17] = assay: membrane integrity loss in HEK cells – cell-based, fluorescence, cytotoxicity control for IDE activator project, dose response (AID 588440); assay type: functional; settings: Homo sapiens;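 also: cytotoxicity by LDH release measuring loss of membrane integrity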

CNc1cc(Cl)c2nonc2c1[N+](=O)[O-]
8.48 µM: IC50 [8]
inactive: EC50 (Beta-galactosidase) > 31.5 µM | IC50 [3] 10.4 µM | EC50 [7] > 32 µM | EC50 (Mu-type opioid receptor) > 32 µM
inconclusive: EC50 [1] 4.78 µM
active: CC50 (HeLa) > 1.22 µM | EC50 [2] 0.752 µM | EC50 (Protein RecA) 1.77 µM | IC50 [4] 2.96 µM | AC50 [5] 5.31 µM | IC50 (CHO) 1.68 µM | IC50 [6] 1.11 µM | IC50 (Beta Lactamase) 4.73 µM

CCOc1ccc(-n2c(SCc3ccc([N+](=O)[O-])cc3)nnc2-c2ccc(OC)cc2)cc1
active: IC50 [10] 1.68 µM | AC50 (CAAX prenyl protease 2 [11]) 1.12 µM | AC50 (CAAX prenyl protease 2 [13]) 0.102 µM
inactive: IC50 [9] > 20 µM | EC50 [12] > 53 µM

Cc1ccc2c(c1)c1c(n2CC(O)CNC2CCCC2)CCCC1 (stereo not drawn)
inactive: EC50 (Insulin-degrading enzyme [14]) > 54.7 µM | EC50 (Insulin-degrading enzyme [15]) > 54.7 µM | EC50 (HEK293 [16]) > 55.9 µM | IC50 (HEK293 [17]) 61.9 µM
